Consider 5 compounds from ChEMBL document CHEMBL1800070, “Inhibition of a prolyl hydroxylase domain (PHD) by substrate analog peptides” (Bioorg Med Chem Lett, 2011).

Experiment [1] addresses T1, Egl nine homolog 1 (Homo sapiens, UniProt Q9GZT9). Briefly: Inhibition of GST-tagged PHD2 assessed as inhibition of hydroxylation of fluorescein-labeled HIF1alpha CODD peptide after 1 hr by fluorescent polarization assay in presence of 2-oxoglutarate.
Target sequence in this assay (Q9GZT9 whole entry): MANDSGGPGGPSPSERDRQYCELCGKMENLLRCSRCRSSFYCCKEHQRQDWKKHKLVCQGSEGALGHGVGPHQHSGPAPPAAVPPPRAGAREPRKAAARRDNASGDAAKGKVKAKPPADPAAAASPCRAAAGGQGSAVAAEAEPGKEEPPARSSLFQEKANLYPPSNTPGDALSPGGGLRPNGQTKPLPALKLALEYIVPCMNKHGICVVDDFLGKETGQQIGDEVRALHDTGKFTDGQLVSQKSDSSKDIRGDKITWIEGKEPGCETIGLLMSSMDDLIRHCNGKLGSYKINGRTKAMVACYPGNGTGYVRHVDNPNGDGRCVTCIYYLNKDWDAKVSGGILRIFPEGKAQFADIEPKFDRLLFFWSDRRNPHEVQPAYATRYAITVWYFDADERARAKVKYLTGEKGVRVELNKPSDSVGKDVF
Experiment [2] addresses T1, Egl nine homolog 1. In words: Competitive inhibition of GST-tagged PHD2 active site assessed as inhibition of hydroxylation of fluorescein-labeled HIF1alpha CODD peptide at 100 uM after 2 hrs by fluorescent polarization assay in presence of 2-oxoglutarate.
Target sequence in this assay (Q9GZT9 2-426 limits assumed): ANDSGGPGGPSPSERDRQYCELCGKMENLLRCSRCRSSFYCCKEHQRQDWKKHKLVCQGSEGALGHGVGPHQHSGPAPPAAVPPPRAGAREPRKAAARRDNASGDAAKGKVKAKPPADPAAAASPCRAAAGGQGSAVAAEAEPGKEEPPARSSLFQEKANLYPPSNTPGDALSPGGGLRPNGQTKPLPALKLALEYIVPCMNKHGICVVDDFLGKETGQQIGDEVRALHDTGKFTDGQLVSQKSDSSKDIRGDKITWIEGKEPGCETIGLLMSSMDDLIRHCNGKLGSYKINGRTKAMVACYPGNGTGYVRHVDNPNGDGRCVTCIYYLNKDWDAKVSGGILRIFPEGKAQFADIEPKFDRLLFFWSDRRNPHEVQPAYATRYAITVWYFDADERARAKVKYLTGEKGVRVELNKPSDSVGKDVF
Experiment [3] deals with T1, Egl nine homolog 1. Briefly: Inhibition of GST-tagged PHD2 assessed as inhibition of hydroxylation of fluorescein-labeled HIF1alpha CODD peptide at 100 uM after 2 hrs by fluorescent polarization assay in presence of 2-oxoglutarate.
Target sequence in this assay (Q9GZT9 2-426 limits assumed): as above
Experiment [4] deals with Hypoxia-inducible factor 1-alpha inhibitor (Homo sapiens) (UniProt Q9NWT6). Briefly: Inhibition of FIH assessed as inhibition of hydroxylation of C-TAD peptide at 100 uM after 2 hrs by fluorescent polarization assay in presence of 2-oxoglutarate.
The target in experiment [5] is T1, Egl nine homolog 1. In words: Inhibition of GST-tagged PHD2 assessed as inhibition of hydroxylation of biotinylated HIF1alpha CODD peptide at 100 uM after 20 mins by MALDI-TOF technique in presence of 2-oxoglutarate.
Target sequence in this assay (Q9GZT9 2-426 limits assumed): as above
Experiment [6] addresses T1, Egl nine homolog 1. In words: Competitive inhibition of GST-tagged PHD2 active site assessed as inhibition of hydroxylation of fluorescein-labeled HIF1alpha CODD peptide at 200 uM after 2 hrs by fluorescent polarization assay in presence of 2-oxoglutarate.
Target sequence in this assay (Q9GZT9 2-426 limits assumed): as above
In experiment [7] the target is T1, Egl nine homolog 1. Briefly: Inhibition of PHD2 in human HeLa cells assessed as stabilization of HIF1alpha at 100 uM incubated for 6 hrs under normoxic conditions by Western blot analysis relative to control. The experiment is classed as cell-based.
Target sequence in this assay (Q9GZT9 2-426 limits assumed): as above
The target in experiment [8] is T1, Egl nine homolog 1. Briefly: Inhibition of PHD2 in human HeLa cells assessed as stabilization of HIF1alpha at 1 mM incubated for 6 hrs under normoxic conditions by Western blot analysis relative to control. The experiment is classed as cell-based. On the technique in general: A western blot detects proteins with antibodies after separation by electrophoresis.
Target sequence in this assay (Q9GZT9 2-426 limits assumed): as above

What is called IC50 is the point on the concentration scale where inhibition reaches its midpoint.

Active and inactive are the calls of the source. No cut-off for these calls is given here.

Hypoxia-inducible factor 1-alpha inhibitor (Homo sapiens), sequence (Q9NWT6 whole entry): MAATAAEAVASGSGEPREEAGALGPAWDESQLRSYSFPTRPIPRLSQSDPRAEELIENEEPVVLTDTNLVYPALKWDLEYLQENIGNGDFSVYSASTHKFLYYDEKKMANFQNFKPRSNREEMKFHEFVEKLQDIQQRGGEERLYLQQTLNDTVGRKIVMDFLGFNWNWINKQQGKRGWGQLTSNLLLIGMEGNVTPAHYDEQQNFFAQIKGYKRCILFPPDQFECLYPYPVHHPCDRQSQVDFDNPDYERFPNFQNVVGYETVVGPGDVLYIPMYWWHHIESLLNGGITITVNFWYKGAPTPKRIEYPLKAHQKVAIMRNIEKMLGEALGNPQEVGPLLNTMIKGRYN

For the compound `O=C(O)[C@@H]1CC(=S)CN1`, the IC50 at Egl nine homolog 1 [1] was determined as 69.7 µM. Moreover, the inhibition result at Egl nine homolog 1 [2] is “inactive”. Also, the inhibition result (on Egl nine homolog 1 [3]; in experiment [4]) was “Active” throughout. In addition, the “inhibition (active/inactive call)” value on Egl nine homolog 1 [5] was “Active”.
As to `O=C(O)[C@@H]1C[C@@H](F)CN1`, at Egl nine homolog 1 [5], the “inhibition (active/inactive call)” value is “inactive”.
Same read-out and setting: in the case of `O=C(O)[C@@H]1C[C@@H](O)CN1` it was “inactive”.
For `O=c1cc(-c2ccccc2)oc2cc(O)c(O)c(O)c12`, the inhibition result (at Egl nine homolog 1 [6]; in experiment [4]) was “Active” each time. Besides, the outcome at Egl nine homolog 1 [7] was Active.
Take `O=C(O)[C@@H]1C=CCN1`: on Egl nine homolog 1 [1], the IC50 was 8.5 µM. At Egl nine homolog 1 [2], the inhibition entry is “inactive”. In addition, the inhibition entry (on Egl nine homolog 1 [3]; in experiment [4]) was “Active” throughout. On Egl nine homolog 1 [5], the “inhibition (active/inactive call)” value was “Active”. For the same compound, the outcome on Egl nine homolog 1 [8] was Active.
